Experimental data: US10780061B2, “Composition comprising farnesol and use thereof” (Daegu Gyongbuk Institute of Science and Technology, priority 2014, dated 2020)

How the values were obtained:
[1] = test system: C2C12 myoblasts; test: Immunoblot of PGC-1α and differentiation markers in farnesol-treated myoblasts; type: cell-based
Procedure: DMEM (Dulbecco's Modified Eagle Medium) supplemented with 10% fetal bovine serum is used as a growth medium for culture of C2C12 myoblasts, and DMEM supplemented with 2% horse serum is used as a differentiation medium for differentiation of muscle cells. To induce differentiation of C2C12 myoblasts into muscle cells, 0.1 μM farnesol dissolved in DMSO or various concentrations of farnesol (0.1, 1, 10, 100 uM) are added, and DMSO is only added to a control group. The cells are cultured for 48 hours to induce differentiation, and then a lysis buffer (20 mM Tris-HCl, pH 8, 150 mM NaCl, 1% Triton X, Proteinase Inhibitor) is added to the harvested cells to allow lysis for 30 minutes, followed by centrifugation at 13,000 rpm for 30 minutes. The amount of protein in the cell lysis sample is quantified and an equal amount of protein is subjected to 8% SDS-PAGE. The protein is transferred onto a PVDF membrane, and then incubated in a blocking buffer containing 5% skim milk for 1 hour. HRP (horseradish peroxidase)-conjugated rabbit antibodies specific to individual proteins, diluted in 5% BSA, are reacted with the membrane at 4° C. for 12 hours, and then the membrane is washed with a wash buffer for 5 minutes three times. Thereafter, the membrane is exposed to X-ray film using an ECL reagent (Roche) to confirm protein expression levels.

[2] = test system: human PGC-1α promoter; test: Screening of compounds using PGC-1α reporter (luciferase) C2C12 cell line; type: cell-based, mouse; settings: 10 μM, 48 hours, luciferase luminescence
Procedure: To screen for a compound activating PGC-1α gene expression in C2C12 myoblast, a PGC-1α reporter-expressing C2C12 cell line (hereinafter, referred to as ‘PGC-1α reporter cell line’ or ‘C2C12-PGC-1α cell line) is established. A vector expressing luciferase and dscGFP (destabilized Green Fluorescent Protein) under human PGC-1α promoter having a length of 1 kb is prepared, and this vector is inserted into lentivirus to transfect C2C12 cells. To select a cell line that genetically and stably expresses this vector, fluorescence emitted from green fluorescent protein (GFP) included in the vector is monitored. […] The expression level is measured by luminescence after addition of a luciferase substrate, thereby determining activation or inhibition of PGC-1α transcription by the compound.
The C2C12-PGC-1α reporter cell line prepared in Section 1 is used to screen a PGC-1α expression regulator from 2320 compounds provided by Korea chemical bank. […] 48 hours later, luminescence by luciferase is measured. in detail, cells are lysed in 10 μl of passive lysis buffer (50 mM Tris-HCl, 7.5 mM MgCl2, 750 mM NaCl, 5 mM EGTA, 1% Triton-x 100, 1 mM Na3VO4, 10 mM NaF, 0.1 mM PMSF (phenylmethanesulfonylfluoride), PI (protease inhibitor)) as a cell lysis buffer, and 50 μl of a luciferase substrate, luciferin was added thereto to allow enzymatic reaction. Then, luminescence is measured. […]

[3] = LC-MS/MS of farnesol and metabolite FPP in extensor digitorum longus muscle; type: in vivo; settings: mouse orally administered with farnesol 5 weeks
Procedure: The amount of intracellular farnesol or metabolite thereof is measured in the extensor digitorum longus muscle of a mouse administered with farnesol for 5 weeks.
Sample pretreatment for quantitative analysis of farnesol in the mouse extensor digitorum longus muscle is performed by extraction using saturated KOH/ethanol and fractionation using Tris-HCl buffer and n-hexane: ethanol (Journal of Pharmaceutical and Biomedical Analysis 47(2008) 560-566) and an n-hexane layer is obtained and dried, followed by LC-MS/MS (ACQUITY UPLC System and ACQUITY TQD mass spectrometry, Waters). […] The concentration of farnesol is determined by a ratio of a peak area of farnesol to a peak area of 1-tetradecanol used as an internal standard, they are added to the sample in an equal amount.
Sample pretreatment for quantitative analysis of a farnesol metabolite, farnesylpyrophosphate (FPP) in the mouse extensor digitorum longus muscle is performed by extraction using 2-propanol: 100 mM NH4HCO3, pH 7.8 (1:1 v/v) and protein precipitation using acetonitrile (Anal. Biochem. 383 (2008) 18-24), and a supernatant is obtained and dried, followed by LC-MS/MS (ACQUITY UPLC System and ACQUITY TQD mass spectrometry, Waters). […] The concentration of FPP is determined by a peak area.

[4] = test system: extensor digitorum longus muscle fibers; test: Immunohistochemistry of muscle fiber type (MHC2a/MHC2b) in extensor digitorum longus muscle; type: in vivo, mouse
Description: To examine distribution of 2a type muscle fiber and 2b type muscle fiber, extensor digitorum longus muscles of mice administered with farnesol for 5 weeks are subjected to immunohistochemistry. 2a type muscle fiber is an oxidative muscle fiber type, and there are two types: aerobic, that is, oxygen-dependent energy source and anaerobic, that is, oxygen-independent energy source. 2b type muscle fiber is a glycolytic muscle fiber type, and includes only anaerobic energy source. Frozen sections stored in a deep freezer of -80° C. are washed with 1×PBS twice, and fixed with 4% paraformaldehyde at room temperature for 15 minutes, and then washed with 1×PBS twice. The tissue and a permeabilization buffer (0.2% Triton-X/PBS) are reacted at room temperature for 30 minutes, and washed with 1×PBS twice. The tissue and Proteinase K are reacted at 37° C. for 10 minutes for antigen retrieval, and washed with 1×PBS twice, and blocked in a blocking buffer (0.1% gelatin, 5% goat serum, 0.5% BSA, and 0.1% Triton-X) for 1 hr. As a primary antibody, a rabbit antibody specifically binding to MHC2a or MHC2b is diluted with the blocking buffer at a ratio of 1:500 and reacted at 4° C. for 12 hrs, followed by washing with 1×PBS twice. A secondary antibody, anti-rabbit antibody is reacted, followed by washing 1×PBS twice. After sealing, a fluorescence microscope (Nikon, body: Ti-u, camera: DS-RI1, program: NIS-elements BR 3.1) was used for analysis. Farnesol is administered to mice in the same manner as in Section 3 of Example 2, except that 22-month-old mice are used instead of 5-month-old mice and administration is performed for 4 months instead of 5 weeks, and changes in the skeletal muscle type are examined.

[5] = cited from earlier work
[6] = 0.1-100 uM tested, from 0.1 to 10 uM, FIG. 1B
[7] = farnesol-treated myoblasts, FIG. 1A
[8] = 5-month-old mice, farnesol orally 5 weeks

CC(C)=CCC/C(C)=C/CC/C(C)=C/CO [farnesol, (2E,6E)-3,7,11-trimethyldodeca-2,6,10-trien-1-ol]
expression of MHC according to farnesol concentration [1, 6]: increased in myoblasts in a farnesol concentration-dependent manner
expression of PGC-1α according to farnesol concentration [1, 6]: increased in myoblasts in a farnesol concentration-dependent manner
expression of myogenin according to farnesol concentration [1, 6]: increased in myoblasts in a farnesol concentration-dependent manner
increase in PGC-1α gene expression compared to control group ([1]; farnesol-treated myoblasts, 48 hours, FIG. 1A): about 2.8 times
expression of myoblast determination protein (MyoD) [1, 7]: increased
expression of myosin heavy chain (MHC) [1, 7]: increased
expression of troponin T gene [1, 7]: increased
PGC-1α promoter activity relative to control group DMSO [2]: greatly increasing
amount of farnesol in EDL muscle relative to control [3]: ≥ 1.3 times
diameter of oxidative 2a type muscle fiber in EDL [4, 8]: increased
number of glycolytic 2b type muscle fiber in EDL [4, 8]: decreased
number of oxidative 2a type muscle fiber in EDL [4, 8]: increased
number of oxidative 2a type muscle fiber in EDL compared to control ([4]; 22-month-old mice, farnesol 4 months): about 1.4 times
lethal dose (LD) for 50% mouse mortality [5]: 8,765 mg per mouse body weight (kg)
